Patent US20120108629A1, “New use of neferine” (Institute of Chinese Materia Medica, China Academy, priority 2009, published 2012)

Tests used:
TRPV1 mRNA = TRPV1 mRNA expression in DRG cells by real-time PCR; type: cell-based, rat; details: for TRPV1 mRNA expression (2^−ΔΔCT): 37° C. 24 h
TRPV1 [1] = test: Intracellular calcium change in DRG cells, Fluo-4 fluorescence (Examples 4-5, Tables 4-5); type: cell-based, rat
Protocol: (§1) Detection of intracellular calcium concentrations of DRG cells: DRG cells cultured under normal, low and high temperature conditions was obtained. The medium was discarded and the cells were washed after certain time. 0.1%F-127, 5 μM of Fluo-4-AM, M fluorescent dye were added and loaded at 25° C. out of light for 30 min. After dye loading, the redundant dye was washed out and buffer and test compounds were added respectively. The cells were put in a closed chamber on a microscope stage. Fluorescence dyed cells were detected with appropriate conditions. The change of fluorescence intensity in each cell was determined and the data were analyzed by software. The change of the intracellular calcium concentration was indicated by fluorescence intensity. The change degree of the intracellular calcium concentration was represented by the percent ratio of the change value of fluorescence intensity before and after administration and the value of fluorescence intensity before administration (Δ[Ca2+]i), i.e. Δ[Ca2+]i=(fluorescence intensity value after administration F-fluorescence intensity value before administration F0)/fluorescence intensity value before administration F0×100%. The change of the intracellular calcium concentration indicated the function of TRP.
(§2) The medium was discarded and the fluorescent dye was added and loaded for 30 min. The change of fluorescence intensity in cell was determined in a closed chamber on a microscope stage and the change of the intracellular calcium concentration was assayed.
as §2

TRPV1 [2] = target: TRPV1 (Rattus norvegicus, UniProt O35433); test: Intracellular calcium change in DRG cells, Fluo-4 fluorescence (Examples 9-11, Tables 9-11); type: cell-based
Sequence of TRPV1 (Rattus norvegicus, UniProt O35433) (O35433 whole entry): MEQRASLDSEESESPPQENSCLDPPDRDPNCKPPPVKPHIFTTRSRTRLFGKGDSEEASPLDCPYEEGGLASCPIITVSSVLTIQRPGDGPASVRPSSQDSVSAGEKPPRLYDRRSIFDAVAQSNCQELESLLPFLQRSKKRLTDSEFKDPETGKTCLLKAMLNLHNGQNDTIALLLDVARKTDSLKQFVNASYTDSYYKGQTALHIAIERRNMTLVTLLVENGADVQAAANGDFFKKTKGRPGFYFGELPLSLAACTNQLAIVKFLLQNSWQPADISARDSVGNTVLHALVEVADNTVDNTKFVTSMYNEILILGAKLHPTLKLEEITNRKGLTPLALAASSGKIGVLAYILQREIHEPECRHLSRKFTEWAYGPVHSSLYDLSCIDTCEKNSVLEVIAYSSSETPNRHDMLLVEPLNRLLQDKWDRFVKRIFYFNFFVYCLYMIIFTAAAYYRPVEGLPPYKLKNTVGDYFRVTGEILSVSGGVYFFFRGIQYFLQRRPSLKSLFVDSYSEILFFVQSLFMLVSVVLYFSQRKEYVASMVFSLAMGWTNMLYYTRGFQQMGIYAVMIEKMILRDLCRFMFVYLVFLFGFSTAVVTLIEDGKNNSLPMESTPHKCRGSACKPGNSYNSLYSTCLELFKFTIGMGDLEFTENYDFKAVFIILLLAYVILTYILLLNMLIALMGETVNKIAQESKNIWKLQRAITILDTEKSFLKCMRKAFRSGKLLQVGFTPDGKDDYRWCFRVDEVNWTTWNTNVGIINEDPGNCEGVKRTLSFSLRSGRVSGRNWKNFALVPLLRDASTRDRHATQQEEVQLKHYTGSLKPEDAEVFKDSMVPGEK
Protocol: as §1, §2, §2
(this is the appropriate stimulation time for the intracellular calcium change after stimulation under 19° C., and the experiment data was not shown). The medium was discarded and the fluorescent dye was added and loaded for 30 min.

[3] = system: Human breast cancer cell line MDA-MB-231; test: Inhibition on proliferation of human cancer cells, MDA-MB-231; type: cell-based; details: MDA-MB-231, 72 h incubation
From the text: (§3) Inhibition on proliferation of human cancer cells: It is reported that the drugs that up-regulate TRPM8 or down-regulate TRPV1 can inhibit proliferation of breast cancer. To further investigate whether neferine follow the same way, human breast cancer cell line MDA-MB-231 and MDA-MB-453 as well as cancer gene-containing human breast gland epithelial cell line MCF10A-Myc and human pancreatic cancer cell line MIAPaCa-2 were employed and cultured in DMEM or DMEM/F12 medium with epithelial growth factor in vitro. After incubation with various concentrations of test agents for 72 h, the effective concentration of them for inhibiting the tumor cells was assayed according to the common method in the art.
(§4) According to the “Inhibition on proliferation of human cancer cells” described above, the effective concentrations of neferine for the inhibition of tumors were obtained (table 11).

[4] = system: Human breast cancer cell line MDA-MB-453; test: Inhibition on proliferation of human cancer cells, MDA-MB-453; type: cell-based; details: MDA-MB-453, 72 h incubation
From the text: as §3, §4

[5] = system: Cancer gene-containing human breast epithelial cell line MCF10A-Myc; test: Inhibition on proliferation, MCF10A-Myc; type: cell-based; details: 72 h incubation
From the text: as §3, §4

[6] = system: Human pancreas cancer cell line MIAPaCa-2; test: Inhibition on proliferation of human cancer cells, MIAPaCa-2; type: cell-based
From the text: as §3, §4

breast cancer cells = test: Inhibition on proliferation of human cancer cells, breast cancer cells; type: cell-based
From the text: as §3, §4

TRPM8 mRNA = TRPM8 mRNA expression in DRG cells by real-time PCR; details: for Effect on TRPM8 mRNA expression (in words) / TRPM8 mRNA expression (2^−ΔΔCT): DRG cells
Protocol: DRG were aseptically removed and meticulously cleaned the rootlets and connective tissue. The tissue was digested with collagenase and trypsin in succession, and then centrifuged and the digestive liquid was discarded. Cells were prepared into single cell suspension in common culture medium, and then calculated and adjusted to 10^5 nerve cells per ml. It was incubated in culture plates pre-coated with laminin at 37° C. in 5% CO2 for 48 hours. Camptothecine was used to inhibit proliferation of other cells. Culture was continued to obtain DRG cells with a high purity (>98%).
Detection of TRPM8 and TRPV1 mRNA expression: The total RNA of the DRG neuronal cells was extracted in a routine way, after exposure to the tested agents of various concentrations under the normal, low and high temperature conditions respectively. The concentration of RNA was measured and its cDNA was prepared. The desired amount of resulting cDNA and TRPM8 or TRPV1 gene primers were added on the IQ5-Type real-time IQ5-Type real-time PCR meter with GAPDH as the endogenous control to perform extension. Melting curves were generated. Relative gene expression was calculated using the comparative threshold cycle (2-^ΔΔCT) method with the calculated formula as following:
ΔΔCt=(Ct,Target-Ct,GAPDH)x-(Ct,Target-Ct,GAPDH)Control
X represents any one of tested, Control represents double target gene expression after GAPDH correction.
The purified culture medium of DRG cells was added with three different concentrations of test compounds and cultured at 37° C. in 5% CO2 for 24 h. The total RNA was extracted immediately after culture. The TRPM8 agonist hexahydrothymol was positive control group and the normal culture medium was vehicle control group. Then the real-time PCR amplification was performed and TRPM8 mRNA was determined.
The purified culture medium of DRG cells was added with three different concentrations of test compounds and cultured at 37° C. in 5% CO2 for 23 h followed by 39° C. in 5% CO2 for 1 h. The total RNA was extracted immediately after culture. The TRPM8 agonist hexahydrothymol was positive control group and the normal culture medium was vehicle control group. Then the real-time PCR amplification was performed and TRPM8 mRNA was determined.
The purified culture medium of DRG cells was added with three different concentrations of test compounds and cultured at 37° C. in 5% CO2 for 22 h followed by 19° C. in 5% CO2 for 2 h. The total RNA was extracted immediately after culture. The TRPM8 agonist hexahydrothymol was positive control group and the normal culture medium was vehicle control group. Then the real-time PCR amplification was performed and TRPM8 mRNA was determined.

[7] = 37° C. 22 h then 19° C. 2 h, 2.5 μmol/L
[8] = 37° C. 22 h then 19° C. 2 h, 5 μmol/L
[9] = 37° C. 22 h then 19° C. 2 h, 10 μmol/L
[10] = 37° C. 23 h then 39° C. 1 h, 2.5 μmol/L
[11] = 37° C. 23 h then 39° C. 1 h, 5 μmol/L
[12] = 37° C. 23 h then 39° C. 1 h, 10 μmol/L

neferine
Effect on TRPV1 mRNA expression (in words) (TRPV1 mRNA; 19° C.): further inhibit expression levels of TRPV1 mRNA dose-dependently
TRP V1 mRNA expression(2^−ΔΔCT) (TRPV1 mRNA; [7]): 0.54 ± 0.17
TRP V1 mRNA expression(2^−ΔΔCT) (TRPV1 mRNA; [8]): 0.47 ± 0.20
TRP V1 mRNA expression(2^−ΔΔCT) (TRPV1 mRNA; [9]): 0.45 ± 0.23
TRP V1 mRNA expression(2^−ΔΔCT) (TRPV1 mRNA; [10]): 4.16 ± 0.71
TRP V1 mRNA expression(2^−ΔΔCT) (TRPV1 mRNA; [11]): 3.70 ± 0.69
TRP V1 mRNA expression(2^−ΔΔCT) (TRPV1 mRNA; [12]): 3.13 ± 0.51
TRPV1 mRNA expression (2^−ΔΔCT) (TRPV1 mRNA; 2.5 μmol): 0.96 ± 0.41
TRPV1 mRNA expression (2^−ΔΔCT) (TRPV1 mRNA; 5 μmol): 1.09 ± 0.30
TRPV1 mRNA expression (2^−ΔΔCT) (TRPV1 mRNA; 10 μmol): 1.04 ± 0.43
Effect on TRPV1 mRNA expression (in words) (TRPV1 mRNA; 37° C., under the test concentrations): could not change expression levels of TRPV1 mRNA
Effect on TRPV1 mRNA expression (in words) (TRPV1 mRNA; 39° C.): decrease the expression levels of TRPV1 mRNA dose-dependently
Effect on intracellular calcium concentration (in words) (TRPV1 [1]; Example 4, DRG cells, 37° C.): increase the intracellular calcium concentration dose-dependently
Intracellular Calcium changes [(F1 − F0)/F0/%] (TRPV1 [1]; Table 4, DRG cells, 37° C. 24 h, 2.5 μmol/L): 121.41 ± 10.05%
Intracellular Calcium changes [(F1 − F0)/F0/%] (TRPV1 [1]; Table 4, DRG cells, 37° C. 24 h, 5 μmol/L): 128.16 ± 11.48%
Intracellular Calcium changes [(F1 − F0)/F0/%] (TRPV1 [1]; Table 4, DRG cells, 37° C. 24 h, 10 μmol/L): 132.07 ± 19.30 %
Intracellular Calcium changes [(F1 − F0)/F0/%] (TRPV1 [1]; Table 5, DRG cells, 37° C. 22 h then 39° C. 2 h, 2.5 μmol/L): 107.88 ± 13.07%
Intracellular Calcium changes [(F1 − F0)/F0/%] (TRPV1 [1]; Table 5, DRG cells, 37° C. 22 h then 39° C. 2 h, 5 μmol/L): 108.09 ± 12.85%
Intracellular Calcium changes [(F1 − F0)/F0/%] (TRPV1 [1]; Table 5, DRG cells, 37° C. 22 h then 39° C. 2 h, 10 μmol/L): 112.72 ± 11.74 %
Effect on intracellular calcium concentration (in words) (TRPV1 [2]; Example 9, DRG cells, 37° C.): decrease the concentration of intracellular calcium dose-dependently
correlation coefficient of dose dependence, intracellular calcium (TRPV1 [2]; Example 9, DRG cells, 37° C.): −0.85
Effect on intracellular calcium concentration (in words) (TRPV1 [2]; Example 10, DRG cells, 39° C.): inhibit the change of the intracellular calcium concentration dose-dependently
correlation coefficient of dose dependence, intracellular calcium (TRPV1 [2]; Example 10, DRG cells, 39° C.): −0.815
Effect on intracellular calcium concentration (in words) (TRPV1 [2]; Example 11, DRG cells, 19° C.): further inhibit the change of the intracellular calcium concentration dose-dependently
correlation coefficient of dose dependence, intracellular calcium (TRPV1 [2]; Example 11, DRG cells, 19° C.): −0.99
Intracellular Calcium changes [(F1 − F0)/F0/%] (TRPV1 [2]; Table 9, DRG cells, 37° C. 24 h, 2.5 μmol/L): 98.15 ± 10.71%
Intracellular Calcium changes [(F1 − F0)/F0/%] (TRPV1 [2]; Table 9, DRG cells, 37° C. 24 h, 5 μmol/L): 98.64 ± 12.77%
Intracellular Calcium changes [(F1 − F0)/F0/%] (TRPV1 [2]; Table 9, DRG cells, 37° C. 24 h, 10 μmol/L): 96.33 ± 8.96%
Intracellular Calcium changes [(F1 − F0)/F0/%] (TRPV1 [2]; Table 10, DRG cells, 37° C. 22 h then 39° C. 2 h, 2.5 μmol/L): 128.63 ± 14.40%
Intracellular Calcium changes [(F1 − F0)/F0/%] (TRPV1 [2]; Table 10, DRG cells, 37° C. 22 h then 39° C. 2 h, 5 μmol/L): 120.51 ± 11.29%
Intracellular Calcium changes [(F1 − F0)/F0/%] (TRPV1 [2]; Table 10, DRG cells, 37° C. 22 h then 39° C. 2 h, 10 μmol/L): 119.49 ± 11.21%
Intracellular Calcium changes [(F1 − F0)/F0/%] (TRPV1 [2]; Table 11, DRG cells, 37° C. 21 h then 19° C. 3 h, 2.5 μmol/L): 99.71 ± 10.96%
Intracellular Calcium changes [(F1 − F0)/F0/%] (TRPV1 [2]; Table 11, DRG cells, 37° C. 21 h then 19° C. 3 h, 5 μmol/L): 98.30 ± 11.89%
Intracellular Calcium changes [(F1 − F0)/F0/%] (TRPV1 [2]; Table 11, DRG cells, 37° C. 21 h then 19° C. 3 h, 10 μmol/L): 93.02 ± 10.54%
Inhibition concentration [3]: 1.30 µg/mL
Inhibition concentration [4]: 2.05 µg/mL
Inhibition concentration [5]: 5.95 µg/mL
Inhibition concentration ([6]; MIAPaCa-2, 72 h incubation): 3.64 µg/mL
inhibition concentration for pancreas ([6]; pancreas cancer cells): below 4 μg/ml
inhibition concentration on breast cancer cells (breast cancer cells): below 2.1 μg/ml
Effect on TRPM8 mRNA expression (in words) (TRPM8 mRNA; 19° C.): up-regulate the expression levels of TRPM8 mRNA dose-dependently
Effect on TRPM8 mRNA expression (in words) (TRPM8 mRNA; 37° C.): up-regulate the expression levels of TRPM8 mRNA dose-dependently
TRPM8 mRNA expression (2^−ΔΔCT) (TRPM8 mRNA; [7]): 3.25 ± 0.65
TRPM8 mRNA expression (2^−ΔΔCT) (TRPM8 mRNA; [8]): 3.37 ± 0.87
TRPM8 mRNA expression (2^−ΔΔCT) (TRPM8 mRNA; [9]): 3.49 ± 0.82
TRPM8 mRNA expression (2^−ΔΔCT) (TRPM8 mRNA; [10]): 0.74 ± 0.23
TRPM8 mRNA expression (2^−ΔΔCT) (TRPM8 mRNA; [11]): 0.78 ± 0.33
TRPM8 mRNA expression (2^−ΔΔCT) (TRPM8 mRNA; [12]): 0.79 ± 0.24
TRPM8 mRNA expression (2^−ΔΔCT) (TRPM8 mRNA; 37° C. 24 h, 2.5 μmol/L): 1.10 ± 0.27
TRPM8 mRNA expression (2^−ΔΔCT) (TRPM8 mRNA; 37° C. 24 h, 5 μmol/L): 1.14 ± 0.31
TRPM8 mRNA expression (2^−ΔΔCT) (TRPM8 mRNA; 37° C. 24 h, 10 μmol/L): 1.28 ± 0.27
Effect on TRPM8 mRNA expression (in words) (TRPM8 mRNA; 39° C.): did not up-regulate TRPM8 mRNA expression
Effect compared with the agonist hexahydrothymol (in words) (TRPM8 mRNA; general statement on TRPM8): stronger effect than hexahydrothymol
